Source: US20220119767A1, “NATURAL KILLER CELL INDUCED CELLULAR VESICLES FOR CANCER THERAPY” (The Regents of the University of California, priority 2019, published 2022)

Test system: K562 leukemia cancer cells
Procedure: DOX-loaded ICVs were tested for cytotoxicity to K562 cancer cells compared to free DOX, as assessed by using an MTT assay (see FIG. 5).

COc1cccc2c1C(=O)c1c(O)c3c(c(O)c1C2=O)C[C@@](O)(C(=O)CO)C[C@@H]3O[C@H]1C[C@H](N)[C@H](O)[C@H](C)O1 [DOX, doxorubicin]
order of K562 cytotoxicity: DOX>NK92 ICVs-DOX>K562 ICVs-DOX
